Results as given in PMC5466822 (Organic & biomolecular chemistry, 2016).

Assays:
p97 [1] = target: T1, p97 (Homo sapiens, UniProt P55072); experiment: malachite green ATPase assay, dose-response; assay type: biochemical
p97 [2] = target: T1, p97; experiment: malachite green ATPase assay, 9-point dose-response; assay type: biochemical

T1 sequence (P55072 2-806): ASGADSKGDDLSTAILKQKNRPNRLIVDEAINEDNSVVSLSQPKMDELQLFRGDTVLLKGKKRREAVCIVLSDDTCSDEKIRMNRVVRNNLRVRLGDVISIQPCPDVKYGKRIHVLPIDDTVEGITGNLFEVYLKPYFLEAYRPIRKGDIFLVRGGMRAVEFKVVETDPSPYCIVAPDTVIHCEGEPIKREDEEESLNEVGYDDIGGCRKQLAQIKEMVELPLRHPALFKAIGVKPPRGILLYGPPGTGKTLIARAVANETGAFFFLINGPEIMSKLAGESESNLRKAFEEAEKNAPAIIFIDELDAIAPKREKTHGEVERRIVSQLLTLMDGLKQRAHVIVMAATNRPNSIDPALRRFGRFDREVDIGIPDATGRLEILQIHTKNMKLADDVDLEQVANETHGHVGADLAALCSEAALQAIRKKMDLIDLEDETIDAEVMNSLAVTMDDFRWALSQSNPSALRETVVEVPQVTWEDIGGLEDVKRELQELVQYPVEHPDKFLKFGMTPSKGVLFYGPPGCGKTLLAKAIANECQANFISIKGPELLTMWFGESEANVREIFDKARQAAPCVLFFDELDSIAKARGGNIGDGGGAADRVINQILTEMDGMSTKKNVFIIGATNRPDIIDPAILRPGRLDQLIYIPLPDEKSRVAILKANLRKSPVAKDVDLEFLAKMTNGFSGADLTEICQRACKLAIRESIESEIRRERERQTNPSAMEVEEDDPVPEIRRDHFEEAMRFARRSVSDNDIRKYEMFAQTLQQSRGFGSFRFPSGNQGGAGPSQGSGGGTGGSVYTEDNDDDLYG

| SMILES | IC50 (p97 [1]) [µM] | IC50 (p97 [2]) [µM] |
| --- | --- | --- |
| C[C@H]1CCC/C=C/C(=O)c2c(cc(O)c(Cl)c2O)CC(=O)O1 [compound 3, 6-chloro-10(11)-dehydrocurvularin] | 24.3 | – |
| C[C@H]1CCC/C=C/C(=O)c2c(O)c(Cl)c(O)c(Cl)c2CC(=O)O1 [compound 4, 4,6-dichloro-10(11)-dehydrocurvularin] | 13.9 | – |
| C[C@H]1CCC/C=C/C(=O)c2c(O)cc(O)cc2CC(=O)O1 [compound 2, 10(11)-dehydrocurvularin] | – | 15.3 ± 9.9 |
